Laboratory results as given in ChEMBL document CHEMBL1130772, “New nonsteroidal androgen receptor modulators based on 4-(trifluoromethyl)-2(1H)-pyrrolidino[3,2-g] quinolinone” (Bioorg Med Chem Lett, 1998).

Columns and labels:
[1] = biological target: T1, Androgen receptor (Homo sapiens, UniProt P10275); experiment: Binding affinity against Androgen receptor transfected into COS cells
T1 sequence (P10275 whole entry): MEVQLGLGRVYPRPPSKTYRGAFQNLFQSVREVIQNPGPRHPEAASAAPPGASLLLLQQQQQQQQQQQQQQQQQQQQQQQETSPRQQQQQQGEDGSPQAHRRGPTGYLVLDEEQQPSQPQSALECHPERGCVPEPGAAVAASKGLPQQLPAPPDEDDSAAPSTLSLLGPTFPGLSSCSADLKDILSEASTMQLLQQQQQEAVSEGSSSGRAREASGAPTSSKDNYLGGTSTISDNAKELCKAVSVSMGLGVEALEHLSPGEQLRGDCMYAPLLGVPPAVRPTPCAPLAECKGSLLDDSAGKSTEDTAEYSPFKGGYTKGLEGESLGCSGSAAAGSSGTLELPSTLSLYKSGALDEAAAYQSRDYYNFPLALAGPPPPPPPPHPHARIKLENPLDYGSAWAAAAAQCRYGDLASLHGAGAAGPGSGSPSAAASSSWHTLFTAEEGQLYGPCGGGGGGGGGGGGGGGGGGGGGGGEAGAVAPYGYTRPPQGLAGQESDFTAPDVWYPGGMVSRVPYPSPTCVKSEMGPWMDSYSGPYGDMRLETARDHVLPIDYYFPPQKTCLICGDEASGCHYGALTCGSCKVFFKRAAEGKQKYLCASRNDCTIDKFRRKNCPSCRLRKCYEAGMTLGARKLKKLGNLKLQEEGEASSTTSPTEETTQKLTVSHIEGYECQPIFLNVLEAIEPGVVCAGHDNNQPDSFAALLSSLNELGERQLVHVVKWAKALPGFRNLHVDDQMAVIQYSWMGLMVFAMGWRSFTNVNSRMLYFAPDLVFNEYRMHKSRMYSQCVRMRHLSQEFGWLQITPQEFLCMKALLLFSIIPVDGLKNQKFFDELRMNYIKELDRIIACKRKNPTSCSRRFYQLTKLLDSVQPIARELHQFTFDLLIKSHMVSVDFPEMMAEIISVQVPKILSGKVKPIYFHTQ

[2] = biological target: Estrogen receptor (Homo sapiens, UniProt Q92731+P03372); experiment: Antagonistic activity against Estrogen receptor in co-transfected CV-1 cell; assay type: functional, cell-based
[3] = biological target: T2, Glucocorticoid receptor (Homo sapiens, UniProt P04150); experiment: Antagonistic activity against Glucocorticoid receptor in co-transfected CV-1 cell; assay type: functional, cell-based
T2 sequence (P04150 whole entry): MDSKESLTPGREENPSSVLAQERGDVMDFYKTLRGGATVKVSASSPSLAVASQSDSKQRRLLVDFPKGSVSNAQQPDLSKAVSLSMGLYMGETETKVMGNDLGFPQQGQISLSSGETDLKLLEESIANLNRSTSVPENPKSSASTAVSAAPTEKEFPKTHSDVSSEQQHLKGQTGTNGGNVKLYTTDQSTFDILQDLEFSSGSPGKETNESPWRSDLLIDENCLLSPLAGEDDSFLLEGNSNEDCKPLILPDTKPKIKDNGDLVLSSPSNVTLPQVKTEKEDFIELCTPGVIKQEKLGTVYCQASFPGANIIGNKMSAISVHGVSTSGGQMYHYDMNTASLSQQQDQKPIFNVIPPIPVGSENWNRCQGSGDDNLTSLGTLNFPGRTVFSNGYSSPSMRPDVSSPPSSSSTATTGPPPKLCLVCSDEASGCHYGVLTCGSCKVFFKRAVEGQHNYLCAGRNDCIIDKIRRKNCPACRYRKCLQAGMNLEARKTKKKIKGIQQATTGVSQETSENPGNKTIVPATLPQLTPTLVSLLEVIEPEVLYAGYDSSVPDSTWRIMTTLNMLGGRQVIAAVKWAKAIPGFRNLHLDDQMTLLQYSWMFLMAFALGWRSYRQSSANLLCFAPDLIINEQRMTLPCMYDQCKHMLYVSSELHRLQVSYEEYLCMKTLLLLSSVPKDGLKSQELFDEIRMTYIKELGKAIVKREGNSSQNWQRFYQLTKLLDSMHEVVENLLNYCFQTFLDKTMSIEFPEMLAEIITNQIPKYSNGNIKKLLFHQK

[4] = biological target: T1, Androgen receptor; conditions: cv-1
Description: Agonistic activity against human androgen receptor (hAR) in co-transfected CV-1 cell

[5] = biological target: T3, Progesterone receptor (Homo sapiens) (UniProt P06401); experiment: Antagonistic activity against hPR in co-transfected CV-1 cell; assay type: functional, cell-based
T3 sequence (whole entry): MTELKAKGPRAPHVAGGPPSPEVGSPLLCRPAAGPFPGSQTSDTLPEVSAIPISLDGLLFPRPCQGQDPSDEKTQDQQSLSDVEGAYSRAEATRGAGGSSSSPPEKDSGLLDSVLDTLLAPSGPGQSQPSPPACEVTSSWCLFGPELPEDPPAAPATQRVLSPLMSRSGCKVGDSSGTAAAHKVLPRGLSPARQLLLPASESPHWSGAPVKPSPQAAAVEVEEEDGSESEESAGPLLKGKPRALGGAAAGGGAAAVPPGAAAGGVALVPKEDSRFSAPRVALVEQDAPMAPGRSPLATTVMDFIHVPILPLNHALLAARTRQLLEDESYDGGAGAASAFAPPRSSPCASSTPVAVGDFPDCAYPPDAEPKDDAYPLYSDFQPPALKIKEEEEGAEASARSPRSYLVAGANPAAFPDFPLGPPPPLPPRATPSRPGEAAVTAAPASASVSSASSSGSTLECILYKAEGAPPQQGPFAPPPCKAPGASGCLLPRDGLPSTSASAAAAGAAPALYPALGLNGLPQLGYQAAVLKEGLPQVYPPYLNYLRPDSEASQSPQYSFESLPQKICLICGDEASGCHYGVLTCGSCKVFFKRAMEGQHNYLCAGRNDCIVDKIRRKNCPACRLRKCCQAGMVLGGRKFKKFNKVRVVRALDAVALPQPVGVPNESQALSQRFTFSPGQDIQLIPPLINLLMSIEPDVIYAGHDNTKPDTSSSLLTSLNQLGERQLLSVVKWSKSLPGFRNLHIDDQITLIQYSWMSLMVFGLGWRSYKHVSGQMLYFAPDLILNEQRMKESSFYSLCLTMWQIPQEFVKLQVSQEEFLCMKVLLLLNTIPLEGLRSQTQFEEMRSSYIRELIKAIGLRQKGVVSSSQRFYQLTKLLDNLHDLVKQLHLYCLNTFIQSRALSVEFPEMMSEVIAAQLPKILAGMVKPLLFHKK

| SMILES | Ki [1] | Efficacy [2] | IC50 [3] | EC50 [4] | Efficacy [5] |
| --- | --- | --- | --- | --- | --- |
| C[C@H]1CC[C@H]2Nc3cc4c(cc3[C@H]2C1)c(C(F)(F)F)cc(=O)n4C | 94 nM | < 20% | > 10000 nM | Not Active | 97% |
| CC1(C)CCC[C@]2(C)c3cc4c(C(F)(F)F)cc(O)nc4cc3N[C@H]12 | 77 nM | < 20% | 1400 nM | Not Active | 96% |
| CN1c2cc3c(cc2[C@H]2CCCC[C@H]21)c(C(F)(F)F)cc(=O)n3C | 10 nM | < 20% | > 10000 nM | Not Active | 98% |
